Results as given in patent US20240101546A1, “HETEROARYL-ACETYLENES, PHARMACEUTICAL COMPOSITIONS THEREOF, AND THEIR THERAPEUTIC APPLICATIONS” (Eubulus Biotherapeutics Inc., priority 2020, published 2024).

Tested on: lung cancer cell line NCI-H82
Experiment: Cell proliferation assay, NCI-H82 (CELL-TITER GLO)
Format: cell-based
Settings: Homo sapiens, NCI-H82, 72 h, NCI-H82 cells, 72 h incubation, cell viability by CELL-TITER GLO, top concentration 1 μM; read-out: EC50, Inhibition of NCl-H82 Cell Proliferation
Description: The activity of a compound was determined in a cell proliferation assay using the lung cancer cell line NCI-H82. Cells (1,000 cells per well) were cultured with RPMI1640 in a 384-well tissue culture plate. After incubated overnight, the compound was added at predetermined concentrations, starting with 1 μM and followed by a 3-fold serial dilution. After the cells were incubated for 72 h, cell viability was determined using a CELL-TITER GLO assay. The CELL-TITER GLO reagent (25 μL) was added to each well and the luminescence was measured by a multimode microplate reader after a brief period of shaking. EC50 values were determined for the compound. The results are summarized in Table 1, wherein A represents a value no greater than 200 nM, B represents a value greater than 200 nM but no greater than 1 μM, C represents a value greater than 1 μM but no greater than […], and D represents a value greater than 5 μM.

Row | Compound | EC50
1 | C#Cc1nnc(NC(=O)N[C@@H](COC(N)=O)c2ccc(-c3ccc(F)cc3C3CC3(F)F)cn2)s1 (stereo partly drawn) [Compound A87, (2R)-2-(5-(2-(2,2-Difluorocyclopropyl)-4-fluorophenyl)pyridin-2-yl)-2-(3-(5-ethynyl-1,3,4-thiadiazol-2-yl)ureido)ethyl carbamate] | ≤ 0.2 µM
2 | C#Cc1nc(NC(=O)N[C@@H](CO)c2ccc(-c3cccc(N4CCCC4)n3)cc2)cs1 [Compound A88, (R)-1-(2-Ethynylthiazol-4-yl)-3-(2-hydroxy-1-(4-(6-(pyrrolidin-1-yl)pyridin-2-yl)phenyl)ethyl)urea] | ≤ 0.2 µM
3 | C#Cc1nc(NC(=O)N[C@@H](CO)c2ccc(-c3cccc(N4CCCC4)n3)cn2)cs1 [Compound A89, (R)-1-(2-Ethynylthiazol-4-yl)-3-(2-hydroxy-1-(6-(pyrrolidin-1-yl)-[2,3′-bipyridin]-6′-yl)ethyl)urea] | ≤ 0.2 µM
4 | C#Cc1ncc(NC(=O)N[C@@H](COC(N)=O)c2ccc(-c3cccc(N4CCCC4)n3)cn2)s1 [Compound A90, (R)-2-(3-(2-Ethynylthiazol-5-yl)ureido)-2-(6-(pyrrolidin-1-yl)-[2,3′-bipyridin]-6′-yl)ethyl carbamate] | ≤ 0.2 µM
5 | C#Cc1nc(NC(=O)N(C)[C@@H](CO)c2ccc(-c3cccc(N4CCCC4)n3)cn2)cs1 [Compound A91, (R)-3-(2-Ethynylthiazol-4-yl)-1-(2-hydroxy-1-(6-(pyrrolidin-1-yl)-[2,3′-bipyridin]-6′-yl)ethyl)-1-methylurea] | ≤ 0.2 µM
6 | C#Cc1nc(NC(=O)N(C)[C@@H](COC(N)=O)c2ccc(-c3cccc(N4CCCC4)n3)cn2)cs1 [Compound A92, (R)-2-(3-(2-Ethynylthiazol-4-yl)-1-methylureido)-2-(6-(pyrrolidin-1-yl)-[2,3′-bipyridin]-6′-yl)ethyl carbamate] | ≤ 0.2 µM
7 | C#Cc1nnc(NC(=O)N[C@@H](CO)c2ccc(-c3cccc(N4CCCC4)n3)cc2)s1 [Compound A93, (R)-1-(5-Ethynyl-1,3,4-thiadiazol-2-yl)-3-(2-hydroxy-1-(4-(6-(pyrrolidin-1-yl)-pyridin-2-yl)phenyl)ethyl)urea] | ≤ 0.2 µM
8 | C#Cc1nnc(NC(=O)N[C@@H](COC(N)=O)c2ccc(-c3cccc(N4CCCC4)n3)cc2)s1 [Compound A94, (R)-2-(3-(5-Ethynyl-1,3,4-thiadiazol-2-yl)ureido)-2-(4-(6-(pyrrolidin-1-yl)-pyridin-2-yl)phenyl)ethyl carbamate] | ≤ 0.2 µM
9 | C#Cc1nnc(NC(=O)N(C)[C@@H](COC(N)=O)c2ccc(-c3cccc(N4CCCC4)n3)cc2)s1 [Compound A95, (R)-2-(3-(5-Ethynyl-1,3,4-thiadiazol-2-yl)-1-methylureido)-2-(4-(6-(pyrrolidin-1-yl)pyridin-2-yl)phenyl)ethyl carbamate] | ≤ 0.2 µM
10 | C#Cc1nnc(NC(=O)N[C@@H](CO)c2ccc(-c3cccc(N4CCCC4)n3)cn2)s1 [Compound A96, (R)-1-(5-Ethynyl-1,3,4-thiadiazol-2-yl)-3-(2-hydroxy-1-(6-(pyrrolidin-1-yl)-[2,3′-bipyridin]-6′-yl)ethyl)urea] | ≤ 0.2 µM
11 | C#Cc1nnc(NC(=O)N[C@@H](COC(N)=O)c2ccc(-c3cccc(N4CCCC4)n3)cn2)s1 [Compound A97, (R)-2-(3-(5-Ethynyl-1,3,4-thiadiazol-2-yl)ureido)-2-(6-(pyrrolidin-1-yl)-[2,3′-bipyridin]-6′-yl)ethyl carbamate] | ≤ 0.2 µM
12 | C#Cc1nc(NC(=O)N[C@@H](CO)c2ccc(-c3cccnc3N(C)C)cc2)cs1 [Compound A98, (R)-1-(1-(4-(2-(Dimethylamino)pyridin-3-yl)phenyl)-2-hydroxyethyl)-3-(2-ethynylthiazol-4-yl)urea] | ≤ 0.2 µM
13 | C#Cc1nc(NC(=O)N[C@@H](COC(N)=O)c2ccc(-c3cccnc3N(C)C)cc2)cs1 [Compound A99, (R)-2-(4-(2-(Dimethylamino)pyridin-3-yl)phenyl)-2-(3-(2-ethynylthiazol-4-yl)-ureido)ethyl carbamate] | ≤ 0.2 µM
14 | C#Cc1nc(NC(=O)N[C@@H](CO)c2ccc(-c3cccnc3N(C)C)c(Cl)c2)cs1 [Compound A100, (R)-1-(1-(3-Chloro-4-(2-(dimethylamino)pyridin-3-yl)phenyl)-2-hydroxyethyl)-3-(2-ethynylthiazol-4-yl)urea] | ≤ 0.2 µM
15 | C#Cc1nc(NC(=O)N[C@@H](COC(N)=O)c2ccc(-c3cccnc3N(C)C)c(Cl)c2)cs1 [Compound A101, (R)-2-(3-Chloro-4-(2-(dimethylamino)pyridin-3-yl)phenyl)-2-(3-(2-ethynyl-thiazol-4-yl)ureido)ethyl carbamate] | ≤ 0.2 µM
16 | C#Cc1nc(NC(=O)N[C@@H](CO)c2ccc(-c3cccnc3N3CC(F)(F)C3)cc2)cs1 [Compound A102, (R)-1-(1-(4-(2-(3,3-Difluoroazetidin-1-yl)pyridin-3-yl)phenyl)-2-hydroxyethyl)-3-(2-ethynylthiazol-4-yl)urea] | ≤ 0.2 µM

Row | Compound | EC50
17 | C#Cc1nc(NC(=O)N[C@@H](COC(N)=O)c2ccc(-c3cccnc3N3CC(F)(F)C3)cc2)cs1 [Compound A103, (R)-2-(4-(2-(3,3-Difluoroazetidin-1-yl)pyridin-3-yl)phenyl)-2-(3-(2-ethynyl-thiazol-4-yl)ureido)ethyl carbamate] | ≤ 0.2 µM
18 | C#Cc1nc(NC(=O)N[C@@H](CO)c2ccc(-c3cccc4ccnc(O)c34)cc2)cs1 [Compound A104, (R)-1-(2-Ethynylthiazol-4-yl)-3-(2-hydroxy-1-(4-(1-hydroxyisoquinolin-8-yl)-phenyl)ethyl)urea] | ≤ 0.2 µM
19 | C#Cc1nc(NC(=O)N[C@@H](COC(N)=O)c2ccc(-c3cccc4ccnc(O)c34)cc2)cs1 [Compound A105, (R)-2-(3-(2-Ethynylthiazol-4-yl)ureido)-2-(4-(1-hydroxyisoquinolin-8-yl)phenyl)-ethyl carbamate] | ≤ 0.2 µM
20 | C#Cc1nc(NC(=O)N[C@@H](CO)c2ccc(-c3cccc4ccnc(O)c34)c(Cl)c2)cs1 [Compound A107, (R)-1-(1-(3-Chloro-4-(1-hydroxyisoquinolin-8-yl)phenyl)-2-hydroxyethyl)-3-(2-ethynylthiazol-4-yl)urea] | ≤ 0.2 µM
21 | C#Cc1nnc(NC(=O)N[C@@H](CO)c2ccc(-c3cccc4ccnc(O)c34)cc2)s1 [Compound A108, (R)-1-(5-Ethynyl-1,3,4-thiadiazol-2-yl)-3-(2-hydroxy-1-(4-(1-hydroxyisoquinolin-8-yl)phenyl)ethyl)urea] | 0.2 to 1 µM
22 | C#Cc1nc(NC(=O)N[C@@H](CO)c2ccc(-c3cccc4ncnc(O)c34)cc2)cs1 [Compound A109, (R)-1-(2-Ethynylthiazol-4-yl)-3-(2-hydroxy-1-(4-(4-hydroxyquinazolin-5-yl)phenyl)ethyl)urea] | ≤ 0.2 µM
23 | C#Cc1nc(NC(=O)N[C@@H](CO)c2ccc(-c3cccc4ncnc(O)c34)c(Cl)c2)cs1 [Compound A110, (R)-1-(1-(3-Chloro-4-(4-hydroxyquinazolin-5-yl)phenyl)-2-hydroxyethyl)-3-(2-ethynylthiazol-4-yl)urea] | ≤ 0.2 µM
24 | C#Cc1nc(NC(=O)N(C)[C@@H](CO)c2ccc(-c3cccc4ncsc34)cc2)cs1 [Compound A111, (R)-1-(1-(4-(Benzo[d]thiazol-7-yl)phenyl)-2-hydroxyethyl)-3-(2-ethynylthiazol-4-yl)-1-methylurea] | ≤ 0.2 µM
25 | C#Cc1nc(N(C)C(=O)N[C@@H](CO)c2ccc(-c3cccc4ncsc34)cc2)cs1 [Compound A112, (R)-3-(1-(4-(Benzo[d]thiazol-7-yl)phenyl)-2-hydroxyethyl)-1-(2-ethynylthiazol-4-yl)-1-methylurea] | ≤ 0.2 µM
26 | C#Cc1nc(N(C)C(=O)N(C)[C@@H](CO)c2ccc(-c3cccc4ncsc34)cc2)cs1 [Compound A113, (R)-1-(1-(4-(Benzo[d]thiazol-7-yl)phenyl)-2-hydroxyethyl)-3-(2-ethynylthiazol-4-yl)-1,3-dimethylurea] | 0.2 to 1 µM
27 | C#Cc1nc(NC(=O)N[C@@H](CO)c2ccc(-c3cccc4ncsc34)cn2)cs1 [Compound A114, (R)-1-(1-(5-(Benzo[d]thiazol-7-yl)pyridin-2-yl)-2-hydroxyethyl)-3-(2-ethynyl-thiazol-4-yl)urea] | ≤ 0.2 µM
28 | C#Cc1nc(NC(=O)N[C@@H](CS(N)(=O)=O)c2ccc(-c3ccc(F)c4ncsc34)c(Cl)c2)cs1 [Compound A115, (R)-2-(3-Chloro-4-(4-fluorobenzo[d]thiazol-7-yl)phenyl)-2-(3-(2-ethynylthiazol-4-yl)ureido)ethane-1-sulfonamide] | ≤ 0.2 µM
29 | C#Cc1nc(NC(=O)N[C@@H](COC(=O)[C@@H](N)C(C)C)c2ccc(-c3cccc4ncsc34)cc2)cs1 [Compound A116, (R)-2-(4-(Benzo[d]thiazol-7-yl)phenyl)-2-(3-(2-ethynylthiazol-4-yl)ureido)ethyl L-valinate] | ≤ 0.2 µM
30 | C#Cc1nc(NC(=O)N[C@@H](COC(=O)CCC/C=C\C/C=C\C/C=C\C/C=C\CCCCC)c2ccc(-c3cccc4ncsc34)cc2)cs1 [Compound A117, (5Z,8Z,11Z,14Z)—(R)-2-(4-(Benzo[d]thiazol-7-yl)phenyl)-2-(3-(2-ethynylthiazol-4-yl)ureido)ethyl icosa-5,8,11,14-tetraenoate] | ≤ 0.2 µM
31 | C#Cc1ncc(NC(=O)N[C@@H](CO)c2ccc(-c3cccc4ncsc34)cc2)s1 [Compound A118, (R)-1-(1-(4-(Benzo[d]thiazol-7-yl)phenyl)-2-hydroxyethyl)-3-(2-ethynylthiazol-5-yl)urea] | 0.2 to 1 µM
32 | C#Cc1nc(NC(=O)N[C@@H](CO)c2ccc(-c3cccc4ncsc34)cc2)c(C)s1 [Compound A119, (R)-1-(1-(4-(Benzo[d]thiazol-7-yl)phenyl)-2-hydroxyethyl)-3-(2-ethynyl-5-methylthiazol-4-yl)urea] | ≤ 0.2 µM
